Assay results as given in patent US9233143B2, “Medicinal agent for preventing exacerbation of malignant tumor, comprising combination of natriuretic peptide receptor GC-A and GC-B agonists” (National Cerebral and Cardiovascular Center, priority 2011, dated 2016).

How the values were obtained:
[1] = tested on: tumor cells; conditions: reports by Vesely et al.; cited from earlier work
[2] = tested on: A549 cells; test: EMT induced by TGF-β1 in A549 cells (morphology, quantitative RT-PCR); assay type: cell-based, human; conditions: for effect of suppressing EMT: concentration of 1 μM, summary of Example 2
Description: Using a 6-well dish, the A549 cells were cultured at 1×10^5 cells/well, and the culture medium was replaced with DMEM culture medium free from FBS the next day. After 24 hours of culture, the cells were used in the following experiment.
An ANP group (a hANP solution was added (final concentration: 1 μM)) and a control group (the same amount of physiological saline was added) were prepared, and after 2 hours from the addition (of the hANP solution or the physiological saline) to the A549 cells, TGF-β1 was added so that the final concentration would be 0.125, 0.25, 0.5, 1.0, and 2.0 ng/mL. After 24 hours had passed, the morphological change in the cells was observed under a microscope and photographed (FIG. 2).
Then, total RNA was recovered from the above prepared ANP group and control group using TRIZOL total RNA isolation reagent (made by Invitrogen), cDNA was synthesized using reverse transcriptase, and the mRNA levels of E-cadherin, N-cadherin, VEGF-A, PDGF-B, TNF-α, and IL-6 were measured by quantitative RT-PCR. The mRNA level of each intended gene was calculated as the relative ratio of the mRNA amount of the gene to that of the housekeeping gene 36B4 measured at the same time. In the Examples below, unless otherwise stated, the mRNA levels were obtained through the same calculation.
It is known that in EMT, the expression of E-cadherin decreases while the expression of N-cadherin increases. The expression ratio of the two kinds of cadherin (N-cad/E-cad) is considered to be useful as an indicator of the degree of EMT.

[3] = tested on: cancer-associated fibroblasts (CAFs); test: Changes in the intracellular cGMP level in response to natriuretic peptide stimulus, CAFs; assay type: cell-based, human; conditions: 1×10^−11 M to 1×10^−6 M, 10 minutes, FIG. 1B
Description: For obtaining CAFs (cancer-associated fibroblasts), tissue harvested from a patient having lung cancer surgery was subjected to primary culture after the consent of the patient was obtained. The cells were then cultured in DMEM culture medium containing 10% FCS under 5% CO2 at 37° C., and the cells of the 5th and earlier passages were used.
(§1) The A549 cells were cultured in a 24-well dish at 4×10^4 cells/well, and the culture medium was replaced with DMEM culture medium free from FCS the next day. The CAFs were cultured in a 24-well dish at 1×10^4 cells/well, and the culture medium was replaced with DMEM culture medium containing 1% FCS the next day.
(§2) To these culture media, solutions of hANP, hBNP, and hCNP-22 (final concentration: ten-fold serial dilution from 1×10^−11 M to 1×10^−6 M, the same amount of physiological saline was used as a control) were separately added. After 10 minutes had passed, 400 μL of cooled 70% ethanol (containing 0.1 N hydrochloric acid) was added, and ultrasonication was performed for a short time. The treated solution was lyophilized, and the cGMP level was measured using Cyclic GMP Assay kit (made by Yamasa Corp.).

[4] = tested on: CAFs; test: Production of cancer exacerbation factors by CAFs under TGF-β1 stimulus (quantitative RT-PCR); assay type: cell-based, human; conditions: test substance 1 μM, TGF-β1 0.125-2.0 ng/mL, 24 hours, mRNA level, FIG. 5
Description: Using a 6-well dish, the CAFs were cultured at 5×10^4 cells/well, and the culture medium was replaced with DMEM culture medium containing 1% FBS the next day. After 24 hours of culture, the cells were used in the following experiment.
A CNP group (a hCNP-22 solution was added (final concentration: 1 μM)) and a control group (the same amount of physiological saline was added) were prepared, and after 2 hours from the addition (of the hCNP-22 solution or the physiological saline) to the CAFs, TGF-β1 was added so that the final concentration would be 0.125, 0.25, 0.5, 1.0, and 2.0 ng/mL. After 24 hours had passed, total RNA was recovered using TRIZOL total RNA isolation reagent, cDNA was synthesized using reverse transcriptase, and the mRNA levels of VEGF-A, TGF-β1, TNF-α, and IL-6 were measured by quantitative RT-PCR.

[5] = tested on: A549 cells and CAFs; test: Mouse models having transplanted cancer cells and CAFs, administration started after tumor tissue was established (Example 6); assay type: in vivo; conditions: hCNP-22 alone 2.5 μg/kg/min, started 2 weeks after transplantation, 4 weeks, FIG. 10
Description: In this Example and Example 6, 5-week-old male immunodeficient mice (KSN mice, Japan SLC, Inc.) were used. The osmotic pumps used were MODEL2004 (for 28-day administration) made by ALZET (Cupertino, Calif.). A mixed suspension of the A549 cells and the CAFs was prepared using DMEM free from FBS so as to contain the A549 cells at 1×10^6 cells/100 μL and the CAFs at 0.5×10^6 cells/100 μL. The mixed suspension in an amount of 100 μL per mouse was subcutaneously injected in the back of the immunodeficient mice. […] After 2 weeks of observation from the injection of the cell suspension, the mice to which the mixed suspension had been injected were randomly divided into 4 groups (control group, ANP group, CNP group, and ANP+CNP group), and an osmotic pump appropriately adjusted for each group as shown below was subcutaneously implanted to start administration. • Control group and A549 group: physiological saline was administered • ANP group: hANP was administered at 0.5 μg/kg/min • CNP group: hCNP-22 was administered at 2.5 μg/kg/min • ANP+CNP group: hANP was administered at 0.5 μg/kg/min and hCNP-22 was administered at 2.5 μg/kg/min Observation was further continued for 4 weeks after the start of administration, the tumor size at the cell injection site was measured weekly, and tumor volume was calculated in the same way as in Example 5 (FIG. 10).

[6] = tested on: A549 cells co-cultured with CAFs; test: Co-culture system of cancer cells and CAFs (mRNA of the A549 cells); assay type: cell-based, human; conditions: each test substance 1 μM
Description: In a 6-well dish, the A549 cells were cultured at 1×10^5 cells/well. The culture medium was replaced with DMEM culture medium free from FBS the next day, and the cells were further cultured for 24 hours. In a 6-well dish having a cell culture insert (1.0 μm pore size, made by BD), the CAFs were cultured at 5×10^4 cells/well. The culture medium was replaced with DMEM culture medium containing 1% FBS the next day, and the cells were further cultured for 24 hours. To each culture medium of the two kinds of cells, test substances were separately added to prepare test substance addition groups. Control groups with no test substance were also prepared. After two hours of culture, these were subjected to co-culture. The test substance addition groups were ANP groups containing hANP at a final concentration of 1 μM, CNP groups containing hCNP-22 at a final concentration of 1 μM, and ANP+CNP groups containing both hANP and hCNP-22 each at a final concentration of 1 μM. Each of the groups were prepared by adding the test substance to each culture medium of the two kinds of cells.
On the 6-well dish of A549 cells treated as above, the above cell culture insert with the CAFs was placed to prepare a co-culture experimental model where only the culture media could pass through the cell culture insert. After 24, 48, and 72 hours of culture, total RNA of the A549 cells only was recovered, cDNA was synthesized, and the mRNA levels of E-cadherin, N-cadherin, VEGF-A, PDGF-B, and IL-6 were measured by quantitative RT-PCR (FIGS. 6 to 8). The experiment using ANP alone (ANP groups: FIG. 6), the experiment using CNP alone (CNP groups: FIG. 7), and the experiment using ANP and CNP in combination (ANP+CNP group: FIG. 8) were independently conducted, where control groups were separately set for each experiment.

[7] = tested on: A549 cells; test: Changes in the intracellular cGMP level in response to natriuretic peptide stimulus, A549 cells; assay type: cell-based, human; conditions: 1×10^−11 M to 1×10^−6 M, 10 minutes, FIG. 1A
Description: Lung adenocarcinoma cell line, A549 cells, was obtained from ATCC (Manassas, Va.). The cells were cultured in DMEM culture medium (Invitrogen, Carlsbad, Va.) containing 10% FCS under 5% CO2 at 37° C. The amounts of the culture medium were 1.5 mL for each well of a 6-well dish, 400 μL for each well of a 24-well dish, and 150 μL for each well of a 96-well dish. In the Examples below, unless otherwise stated, the same culture medium and culture conditions were adopted.
as §1, §2

[8] = A549 cells, test substance 1 μM, mRNA level, FIG. 3

| Substance | growth-suppressing activity on tumor (cancer) cells [1] | effect of suppressing EMT [2] | cGMP level of the CAFs [3] | gene expression of the growth factors (VEGF-A, TGF-β1) and the inflammatory cytokines (TNF-α, IL-6) increased by the TGF-β1 stimulus in CAFs [4] | intracellular cGMP level of the A549 cells [7] | other results |
| --- | --- | --- | --- | --- | --- | --- |
| vessel dilator: peptide in reports by Vesely et al., sequence not likely to contribute to binding to GC-A (EVVPPQVLSEPNEEAGAALSPLPEVPPWTGEVSPAQR; Vessel dilator; UniProt P01160 56-92, looked up) | the same or stronger growth-suppressing activity |  |  |  |  |  |
| hCNP-22: 22-amino acid CNP-22 of human origin (GLSKGCFGLKLDRIGSMSGLGC: SEQ ID NO: 7), GC-B agonist (GLSKGCFGLKLDRIGSMSGLGC; listed as Homo sapiens) |  | did not show such an effect at all | increased the cGMP level of the CAFs in a concentration-dependent manner | significantly suppressed | did not show such increase | morphological change in the cells associated with EMT induced by the TGF-β1 stimulus ([2]; A549 cells, test substance 1 μM, 24 hours after TGF-β1, FIG. 2): the same as those of the control; gene expression of the growth factors (VEGF-A, PDGF-B) and the inflammatory cytokines (TNF-α, IL-6) increased by EMT induced by the TGF-β1 stimulus ([2]; A549 cells, test substance 1 μM, TGF-β1 0.125-2.0 ng/mL, 24 hours, mRNA level, FIG. 3): the same as those of the control; decrease in the expression of E-cadherin induced by the TGF-β1 stimulus [2, 8]: the same as those of the control; increase in the expression of N-cadherin induced by the TGF-β1 stimulus [2, 8]: the same as those of the control; tumor growth as compared with the control group [5]: showed an effect of tumor growth suppression; gene expression of the growth factors (VEGF-A, PDGF-B) and inflammatory cytokine (IL-6) increased in the co-culture ([6]; A549 cells co-cultured with CAFs 24, 48, 72 hours, FIGS. 6 to 8): could not suppress; expression ratio of N-cadherin/E-cadherin (N-cad/E-cad), indicator of EMT, in the co-culture ([6]; A549 cells co-cultured with CAFs, FIGS. 6D, 7D, 8D): did not show any effect |
| kalliuretic peptide: peptide in reports by Vesely et al., sequence not likely to contribute to binding to GC-A (SSDRSALLKSKLRALLTAPR; Kaliuretic peptide; UniProt P01160 104-123, looked up) | the same or stronger growth-suppressing activity |  |  |  |  |  |
| hBNP: 32-amino acid BNP of human origin (SPKMVQGSGCFGRKMDRISSSSGLGCKVLRRH: SEQ ID NO: 3), GC-A agonist | does not have such a growth-suppressing activity | significantly suppressing EMT | did not show such an action | did not show any effect on CAFs | increased the intracellular cGMP level of the A549 cells in a concentration-dependent manner |  |
| long acting natriuretic peptide: peptide in reports by Vesely et al., sequence not likely to contribute to binding to GC-A (NPMYNAVSNADLMDFKNLLDHLEEKMPLED; Long-acting natriuretic peptide; UniProt P01160 26-55, looked up) | the same or stronger growth-suppressing activity |  |  |  |  |  |
